Legend:
Gloeophyllum trabeum = test: Agar hyphae growth test, minimum inhibitory concentration (MIC) and Kull synergism; assay type: cell-based; settings: 168 h, malt extract/peptone nutrient agar, 26° C., radial hyphae growth suppressed completely, about 1 week, read-out: MIC against Gloeophyllum trabeum
Description: Mycelium pieces were punched out of a colony of the wood-destroying fungus Gloeophyllum trabeum and incubated at 26° C. on a malt extract/peptone-containing nutrient agar. The hyphae growth with and without added active compound and/or amidoalkylamine was compared. The minimum inhibitory concentration (MIC) stated is the concentration at which the radial hyphae growth is suppressed completely (incubation time: about 1 week depending on the fungal growth of the comparative sample without active compound).
(§1) The synergism was determined by the method described by Kull et al. (F. C. Kull, P. C. Eismann, H. D. Sylvestrowicz, R. L. Mayer, Applied Microbiology 1961, 9, 538-541). Here, the following relations apply:
[formula] X=1 means additivity X>1 means antagonism X<1 means synergism Qa=concentration of substance A which is the MIC Qb=concentration of substance B which is the MIC QA=concentration of substance A in the concentration of A/B which suppresses the microbial growth QB=concentration of substance B in the concentration of A/B which suppresses the microbial growth Results: […]

Poria placenta = test: as above; assay type: cell-based; settings: malt extract/peptone nutrient agar, 26° C., radial hyphae growth suppressed completely; read-out: MIC against Poria placenta
Description: as §1
[formula] X=1 means additivity X>1 means antagonism X<1 means synergism Qa=concentration of substance A which is the MIC Qb=concentration of substance B which is the MIC QA=concentration of substance A in the concentration of A/B which suppresses the microbial growth QB=concentration of substance B in the concentration of A/B which suppresses the microbial growth Results:
Mycelium pieces were punched out of a colony of the wood-destroying fungus Poria placenta and incubated at 26° C. on a malt extract/peptone-containing nutrient agar. The hyphae growth with and without added active compound and/or additive was compared. The minimum inhibitory concentration (MIC) stated is the concentration at which the radial hyphae growth is suppressed completely.

Molecule `CC(C)(C)C(O)(CCc1ccc(Cl)cc1)Cn1cncn1` (stereo not drawn) [tebuconazole] has an MIC (Gloeophyllum trabeum) of 0.5 µg/mL.
`CC(C)(C)C(=O)C(Oc1ccc(Cl)cc1)n1cncn1` (stereo not drawn) [triadimefon] showed an MIC (Poria placenta) of 3 µg/mL.
With `CCCC1COC(Cn2cncn2)(c2ccc(Cl)cc2Cl)O1` (stereo not drawn) [propiconazole] the MIC (Poria placenta) was 0.5 µg/mL.

From patent publication US8002883B2, “Amidoalkylamine-comprising azole compositions for protecting industrial materials” (LANXESS Deutschland GmbH, priority 2009, dated 2011)
